The subject of test [1] is glioma cells. The experiment in a line: total intracellular glutathione content in glioma cells. The test is classed as cell-based, human. The procedure:
To determine if limiting cystine uptake via system Xc reduces the total intracellular glutathione content (GSH and glutathione disulfide), intracellular glutathione concentrations were determined in the presence and absence of sulfasalazine.

The test system of test [2] is glioma cell lines (D-54MG, U-87MG, U-251MG and STTG1) and a primary glioma culture (GBM62). The test can be described thus: growth curves of glioma cells over 5 days. The test is classed as cell-based, human. The procedure: To examine whether the depletion of glutathione via inhibition of cystine uptake by system Xc affects the growth of glioma cells, growth curves for 4 glioma cell lines (D-54MG, U-87MG, U-251MG and STTG1) and a primary glioma culture (GBM62) were established.
In the presence of 0.25 mM (S)-4-CPG, growth of D-54MG cells indeed recovered by the addition of fourfold excess of cystine (FIG. 3E), but not with glutamate (FIG. 3D), the second substrate for system Xc.

The subject of test [3] is primary astrocyte cultures. The experiment in a line: growth of primary astrocyte cultures. The format is cell-based. As to conditions: (S)-4-CPG 0.25 mM and 0.5 mM (FIG. 3C); sulfasalazine data not shown.
The subject of test [4] is cortical neuronal cultures. The experiment in a line: survival of cortical neuronal cultures. The test is classed as cell-based. As to conditions: (S)-4-CPG 0.25 mM and 0.5 mM (FIG. 3C); sulfasalazine data not shown.
The test system of test [5] is D-54MG glioma cells. The experiment in a line: BrdU incorporation, ELISA-based assay. The format is cell-based, human. Here is the method:
(§1) BrdU incorporation was measured using an ELISA-based assay. D-54MG cells were grown in the presence or absence of inhibitors for 24 hours and pulsed for 2 hours with BrdU. The cells were cultured for an additional 48 hours and the amount of incorporated BrdU was measured using alkaline phosphatase conjugated to anti-BrdU antibodies. […] The inhibition of DNA synthesis was also seen in immunocytochemical studies.
A general note: Incorporation of labelled thymidine or its analogues reports DNA synthesis.

Test [6] has as its system D-54MG glioma cells. The experiment in a line: BrdU incorporation, immunocytochemical studies. The test is classed as cell-based, human. As to conditions: DAPI co-staining (FIG. 4B). The procedure:
as §1

For test [7], the system named is glioma cells. The test can be described thus: cell cycle: total DNA content by flow cytometry (propidium iodide). As to conditions: 0.5 mM (FIG. 4D). The test is classed as cell-based, human. Here is the method:
To test whether inhibition of cystine uptake affects a specific stage of the cell cycle, changes in total DNA content were measured using flow cytometry following treatment with 0.5 mM (S)-4-CPG and 0.5 mM sulfasalazine. Cells were fixed with para-formaldehyde and stained with the nuclear marker propidium iodide after incubation with drugs.
Background: In flow cytometry, cells or beads pass a laser one at a time.

Test [8] has as its system D-54MG glioma cells. The experiment in a line: chromosomal DNA fragmentation (apoptosis) by flow cytometry. The format is cell-based, human. As to conditions: 1 mM for 3 days; D-54MG (FIG. 5B). Here is the method: (§2) Because an accumulation of ROS can lead to apoptotic cell death, the ability of system Xc inhibitors to induce apoptosis in glioma cells was examined. […] Often apoptosis is dependent on caspase activities, so it was determined whether the system Xc inhibitors induce activated caspase-3, which is the convergent enzyme in the caspase-dependent signaling cascade. […] With 1 mM sulfasalazine, 90% of cells died over the 5 d incubation (FIG. 5E).

In test [9] the test system is caspase-3. The test can be described thus: activated caspase-3 by Western blot analysis. The format is cell-based, human. As to conditions: 0.5 mM; D-54MG cells (FIG. 5C). Here is the method:
as §2
In general terms: In western blotting, separated proteins are transferred to a membrane and probed.

The subject of test [10] is glioma cells. The test can be described thus: cell death by flow cytometry using the Live/Dead assay kit. The test is classed as cell-based, human. Here is the method: as §2
In test [11] the test system is glioma cells. The test can be described thus: rescue from (S)-4-CPG-induced cell death by caspase inhibitor. The format is cell-based, human. As to conditions: Boc-D-FMK 100 μM; (S)-4-CPG 0.25 mM (FIG. 5D). Here is the method: Because an accumulation of ROS can lead to apoptotic cell death, the ability of system Xc inhibitors to induce apoptosis in glioma cells was examined. Exposure of D-54MG glioma cells to 1 mM (S)-4-CPG for 3 days caused 17% of the cell population to be positive for chromosomal DNA fragmentation, a classic manifestation of apoptosis (FIG. 5B). Often apoptosis is dependent on caspase activities, so it was determined whether the system Xc inhibitors induce activated caspase-3, which is the convergent enzyme in the caspase-dependent signaling cascade. […] In the continued presence of 0.5 mM (S)-4-CPG over a 5 d period, 60% of glioma cells died (FIG. 5E). With 1 mM sulfasalazine, 90% of cells died over the 5 d incubation (FIG. 5E).

Test [12] has as its target T1, system Xc (Homo sapiens, UniProt Q9UPY5).
T1 construct: reduced ^35S-labeled cystine uptake by 60-80% in glioma lines (d-54MG, U-87MG and U-251MG) and a primary glioma culture (GBM62); endogenous in cells; host or cells: human glioma cell lines D-54MG, U-87MG, U-251MG and primary glioma culture GBM62
T1 sequence (Q9UPY5 1-501): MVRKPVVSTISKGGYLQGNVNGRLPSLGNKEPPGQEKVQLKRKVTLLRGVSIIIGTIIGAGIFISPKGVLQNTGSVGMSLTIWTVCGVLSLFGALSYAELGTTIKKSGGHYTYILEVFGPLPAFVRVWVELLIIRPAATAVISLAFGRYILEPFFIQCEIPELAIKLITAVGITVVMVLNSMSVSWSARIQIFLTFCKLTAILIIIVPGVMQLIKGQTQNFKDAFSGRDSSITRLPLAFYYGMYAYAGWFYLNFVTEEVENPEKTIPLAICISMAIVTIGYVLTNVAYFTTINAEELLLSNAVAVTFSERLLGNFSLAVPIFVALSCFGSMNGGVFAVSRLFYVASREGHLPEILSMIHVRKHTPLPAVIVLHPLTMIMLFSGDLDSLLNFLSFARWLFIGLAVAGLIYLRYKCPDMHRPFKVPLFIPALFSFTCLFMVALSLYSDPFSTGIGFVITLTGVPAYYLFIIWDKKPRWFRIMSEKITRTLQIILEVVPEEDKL
T1 sequence (P08195 1-529 partner): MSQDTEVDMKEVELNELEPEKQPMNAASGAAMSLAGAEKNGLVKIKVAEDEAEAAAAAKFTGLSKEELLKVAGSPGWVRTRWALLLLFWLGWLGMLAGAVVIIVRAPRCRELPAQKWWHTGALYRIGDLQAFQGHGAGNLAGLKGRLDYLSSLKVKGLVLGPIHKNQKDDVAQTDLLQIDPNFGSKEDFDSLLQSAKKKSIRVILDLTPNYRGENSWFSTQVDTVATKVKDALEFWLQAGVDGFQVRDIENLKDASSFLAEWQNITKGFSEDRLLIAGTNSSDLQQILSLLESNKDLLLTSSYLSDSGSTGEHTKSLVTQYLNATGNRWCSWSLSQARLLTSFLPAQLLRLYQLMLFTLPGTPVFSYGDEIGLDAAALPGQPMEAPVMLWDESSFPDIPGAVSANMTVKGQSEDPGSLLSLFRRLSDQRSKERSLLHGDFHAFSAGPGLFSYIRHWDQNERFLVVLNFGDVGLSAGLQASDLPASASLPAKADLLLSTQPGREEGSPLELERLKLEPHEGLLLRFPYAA
The experiment in a line: 35S-labeled cystine uptake in glioma lines and primary glioma culture. The test is classed as cell-based. The note with it: 5 mM L glutamate; data not shown. From the text:
System Xc is a glutamate-cystine exchanger and can therefore be inhibited if the outward directed gradient for glutamate is eliminated by exposure to high concentrations of extracellular glutamate. The principal hypothesis in this study is that system Xc serves as a pipeline for cellular cystine uptake, with glutamate release being an obligatory by-product. Cystine uptake is the rate-limiting step for the synthesis of GSH, which is the main intracellular antioxidant that protects cells from oxidative stress and resulting reactive oxygen species (ROS) (Jefferies et al., 2003).

The values below come from patent publication US8748445B2, “Methods for treating glioma” (The UAB Research Foundation, priority 2004, dated 2014).

Entries after “also recorded” stand apart in the source; their conditions may differ.

As to `N[C@H](C(=O)O)c1ccc(C(=O)O)cc1` [(S)-4-CPG, (S)-4-carboxyphenylglycine], the intracellular glutathione concentration result in test [1] (0.25 mM, glioma cells D-54MG, U-87MG, U-251MG and primary glioma culture GBM64 (FIG. 2F)) is recorded as “depleted intracellular glutathione concentration”. For the same molecule, the “growth of glioma cells” value in test [2] (5 days, 0.1 and 0.25 mM (S)-4-CPG, 0.25 and 0.5 mM sulfasalazine, all glioma cell lines and GBM62 (FIGS. 3A, 3B)) is listed as “dose-dependent growth inhibitions”. In [3], the “growth of primary astrocyte cultures” value is reported as “negligible impact; also recorded: Neither (S)-4-CPG (FIG. 3C) nor sulfasalazine (data not shown) affected”. In test [4], the “survival/growth of cortical neuronal cultures” value is reported as “negligible impact; also recorded: Neither (S)-4-CPG (FIG. 3C) nor sulfasalazine (data not shown) affected”. Also, the “reduction of incorporation of BrdU into chromosomal DNA” value in [5] (0.25 mM, within 48 hours, D-54MG (FIG. 4A)) worked out at 50%. For the same molecule, in test [5] (0.5 mM, D-54MG (FIG. 4A)), the “reduction of BrdU incorporation relative to 0.25 mM” value is listed as “somewhat larger reduction”. The “incorporation of BrdU, immunocytochemistry” value in test [6] is “virtually abolished incorporation of BrdU”. In addition, the “cell cycle distribution (total DNA content)” value in test [7] was “a reduction of cells in G2 phase and an increase in cells in S phase”. Moreover, in test [8], the “cell population positive for chromosomal DNA fragmentation” value is recorded as 17%. The “activated form of caspase-3” value in test [9] is recorded as “increased the activated form of caspase-3”. Also, the glioma cells died in test [10] (0.5 mM, continued presence over a 5 d period (FIG. 5E)) was 60%.
On to `COC(=O)CC(NC(=O)OC(C)(C)C)C(=O)CF` [Boc-D-FMK, Boc Asp-fluoromethylketone], for which, in test [11], the “rescue from cell death induced by (S)-4-CPG” value is given as “a significant percentage of cells were rescued from cell death”.
As for `N[C@@H](CSSC[C@H](N)C(=O)O)C(=O)O` [cystine], the “growth of D-54MG cells in the presence of (S)-4-CPG” value in test [2] (0.25 mM (S)-4-CPG plus fourfold excess of cystine (FIG. 3E)) is “recovered”. For the same molecule, in test [5] (inhibition caused by 0.5 mM (S)-4-CPG and 0.5 mM sulfasalazine (FIG. 4C)), the “reversal of inhibition of BrdU incorporation by exogenous cystine” value is reported as “able to reverse the inhibition of BrdU incorporation”. The “prevention of cell death induced by (S)-4-CPG” value in test [10] (0.5 mM (S)-4-CPG with 1 mM cystine (FIG. 5E)) is reported as “completely prevented”.
On to `N[C@@H](CCC(=O)O)C(=O)O` [glutamate], for which, in [12], the “competitive inhibition of cystine uptake compared with both drugs” value is “comparable”. In [1] (L-glutamate with system Xc inhibitor (FIG. 3D)), the “restoration of intracellular glutathione levels” value is “failed to restore intracellular glutathione levels”. Moreover, in test [2] (1 mM glutamate with 0.25 mM (S)-4-CPG (FIG. 3D)), the “reversal of growth inhibition by (S)-4-CPG” value was “failed to overcome the inhibitory effect”.
On to `CCOC(=O)CNC(=O)[C@H](CS)NC(=O)CC[C@H](N)C(=O)O` [glutathione ethyl ester], for which the “intracellular glutathione levels on coincubation” value in [1] (sulfasalazine (0.4 mM) treated D-54MG glioma cells (FIG. 6A)) is on record as “replenished intracellular glutathione levels”. Further, the “D-54MG glioma cell growth on coincubation” value in test [2] (after treatment with 0.4 mM sulfasalazine or (S)-4-CPG, GSHest 1 mM) is on record as “completely restored D-54MG glioma cell growth”.
For vitamin E, in test [2] (in the presence of (S)-4-CPG (FIG. 5A)), the “growth of D-54MG glioma cells with free radical scavenger” value is listed as “partially restored”.
